This note sets out measurements from patent US5190956A, “Certain N-substituted 3-oximino-2,4-dioxoquinolin-2,4-(1H)diones useful for treating viral infections” (Schering Corporation, priority 1990, dated 1993).

Structures are written as SMILES.

Data set [1] relates to HSV-2 (strain MS). The experiment in a line: HSV-β-GAL assay (transient expression of beta galactosidase in transfected HeLa cells superinfected with HSV-2). Type of data set: cell-based. The note with it: HeLa cells transfected with pON 245^ori-, moi=5 pfu/cell, more than one number = additional tests; for IC50: Human alphaherpesvirus 2, HeLa, 24 h, read-out: ANTI-HSV ACTIVITY HSV-β-GAL ASSAY IC50. The procedure: HeLa and Vero cell cultures were maintained in Eagles Minimal Essential Medium which was supplemented with glutamine, penicillin, streptomycin and 10% fetal calf serum (10% EMEM). Stock cultures of HSV-2 (strain MS available from ATCC VR-540) were grown in and harvested from Vero cells. Viral stocks were titered in Vero cells according to established procedures.
Plasmid pON 245^ori- contains the promoter of the HSV-1 thymidine kinase (tk) gene located immediately 5' of the E. coli lac Z gene. In this arrangement, the tk promoter controls transcription from the bacterial gene in transient expression assays. Additionally, an SV40 polyadenylation signal is present at the 3' end of the lac Z gene to allow for the efficient translation of the mRNA in eucaryotic cells. The expression of beta galactosidase in a transient assay using pON 245^ori- is dependent upon superinfection of the transfected cells with HSV. […] For example, see U.S. application Ser. No. 07/435,491 filed Sep. 5, 1989, the disclosure of which is incorporated herein by reference thereto.
HeLa cells were seeded into 96 well microtiter plates and allowed to grow to 80% confluency (approximately 35000 cells/well). One half microgram of plasmid pON 245^ori- DNA was introduced into the cells of each well by the […] precipitation technique (Grahman and Van der Eb, 1973). Four to six hours later, the cells were rinsed with Hank's Balanced Salt Solution (HBSS), overlaid with 10% EMEM and incubated at 37° C. At 24 hrs post-transfection, cells were rinsed, overlaid with 10% EMEM again and re-incubated at 37° C. At 48 hrs. post-transfection, cells were rinsed and overlaid with either EMEM containing 2% fetal calf serum (2% EMEM), 2% EMEM containing HSV-2 (strain MS, Multiplicity of Infection [moi]=5 pfu/cell) or 2% EMEM containing HSV-2 and the appropriate concentration of the compound to be tested. Twenty-four hrs later, the cells were harvested and assayed for beta galactosidase activity as described below.
All determinations of beta galactosidase activity were performed in 96 well microtiter plates. The intracellar level of beta galactosidase activity in each well was determined from cell lysates of the monolayer cultures. Aliquots were assayed by incubation in the presence of beta galactosidase substrate, 4-methylumbelliferyl-β-D-galactoside (MUG, 125 ug/ml, Sigma), for 2 hrs. The generation of fluorescent product was quantified on a Microfluor microfluorimeter (Dynatech) after addition of 0.1M glycine, pH 10.3 (Spaete and Mocarski, 1985). The inhibitory activity of a compound was plotted versus the concentration and an IC50 value (the concentration of compound required to reduce beta glactosidase expression by 50%) was obtained for each compound tested.

Data set [2] is described as follows: Cytotoxicity, 3H-LEU assay (inhibition of HeLa cell translation). The class given is cell-based. The note with it: human; HeLa cells, tritiated leucine incorporation after overnight/24 hrs treatment; read-out: CYTOTOXICITY 3H-LEU ASSAY IC50. How it is done:
HeLa cells were treated with inhibitory compound for 24 hrs, after which levels of translational activity were assayed.
For assay of translational activity, HeLa cultures were grown to 80% confluency in 96 well microtiter plates, treated with appropriate concentrations of compound in 2% EMEM during an overnight incubation at 37° C., then rinsed with HBSS and overlaid with […] of 2% EMEM containing 8 uCi of tritiated leucine (^3 H-LEU, 141 Cu/mMol, Amersham Corp., Arlington Heights Ill.). After a 1 hr incubation at 36.5° C., the cells were rinsed twice with phosphate buffered saline (PBS) and lysed in 400 ul/well of 1×PBS, 0.5% sodium dodecyl sulphate (SDS). After a 10 min incubation at 36.5° C., the contents of the well were transferred to a well in a Millititer HA microfiltration plate (Millipore Corp., Bedford, Mass.). The TCA insoluble proteins were precipitated onto the filter disc by a 10 min fixation with 5% TCA, followed by filtration under vacuum and three 10 minute rinse with 95% ethanol. The filters were dried at room temperature, cut from the milltitier plate and transferred to scintillation vials. TCA precipitable counts were assayed in 5 ml of Scintisol (Isolab, Akron, Ohio). The inhibitory activity of a compound was plotted versus the concentration and an IC50 value (that concentration of the compound required to decrease cellular translational activity by 50%) was derived for each compound.

In data set [3] the test system is HSV-2, strain MS. In words: In vivo anti-HSV efficacy, prophylactic guinea pig model of HSV infection. The note with it: 60 mg per kg subcutaneously, T.I.D., 10 days, first dose 24 hrs before infection. The procedure: The in vivo assessment of anti-HSV efficacy was determined in the prophylactic guinea pig model of HSV infection described by Stansberry et al (1982). Dosing of guinea pigs was comprised of an initial treatment with test compound given 24 hrs prior to virus infection and subsequent administration of the compound every eight hours (T.I.D.) for a total of 10 days. Test compounds were administered subcutaneously in 0.5% buffered methyl cellulose at a dose of 60 mg per kg body weight of the animal. Animals were monitored daily for the developement of genital lesions and neurological symptomology, both of which were recorded and compared to the results obtained with parallel groups which received placebo or acyclovir treatment. Efficacy was evaluated for each compound by scoring the ability of the compound to ameliorate genital lesions produced by infection with HSV-2, strain MS, expressed as Maximum Lesion scores (MLS) on a scale of 1 (least lesions) to 4 (severe lesions).

Take `O=C1C(=NO)C(=O)N(Cc2ccccc2)c2ccccc21` [Formula 1.03]: in data set [1], the IC50 amounted to 7 µg/mL. For the same compound, the CC50 at 24 h in data set [2] was found to be 40 µg/mL.
Take `CN1C(=O)C(=NO)C(=O)c2ccccc21` [Formula 1.02]: the IC50 in data set [1] was 7 µg/mL. Moreover, the CC50 at 24 h in data set [2] came out at 27 µg/mL.
Consider `CCCCCCCN1C(=O)C(=NO)C(=O)c2ccccc21` [Formula 1.04], for which the “ANTI-HSV ACTIVITY HSV-β-GAL ASSAY IC50” value in data set [1] (24 hrs) was found to be 2.5 µg/mL. The IC50 in data set [1] is less than 3 µg/mL. For the same compound, the CC50 at 24 h in data set [2] was found to be 37 µg/mL. Also, the “In-vivo anti-HSV activity (genital lesions, Maximum Lesion score)” value in data set [3] was “inactive”.

What is called IC50 is the midpoint of a concentration-inhibition curve.
